Laboratory results as given in PubChem BioAssay (NCI).
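Step 1: Grow cells in 96-well plates. Step 2: Expose to compound for 48 hours at 5 concentrations. Step 3: Interpolate endpoints linearly; if unreached, use highest concentration. TGI: concentration producing complete growth inhibition.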

Legend:
Assay in all cases: NCI-60 cell line screen, 48 h
[1] = system: LOX IMVI melanoma
[2] = system: KM12 colon
[3] = system: NCI-H23 lung
[4] = system: M14 melanoma
[5] = system: HCT-116 colon
[6] = system: NCI-H460 lung
[7] = system: NCI/ADR-RES ovarian
[8] = system: MDA-MB-231 breast
[9] = system: DU-145 prostate
[10] = system: SK-OV-3 ovarian
[11] = system: HCC-2998 colon
[12] = system: MOLT-4 leukemia
[13] = system: SF-295 CNS
[14] = system: SF-268 CNS
[15] = system: PC-3 prostate
[16] = system: NCI-H522 lung
[17] = system: 786-0 renal
[18] = system: SNB-19 CNS
[19] = system: RPMI-8226 leukemia
[20] = system: U251 CNS
[21] = system: HCT-15 colon
[22] = system: OVCAR-4 ovarian
[23] = system: SK-MEL-28 melanoma
[24] = system: MALME-3M melanoma
[25] = system: T-47D breast
[26] = system: IGROV1 ovarian
[27] = system: ACHN renal
[28] = system: HT29 colon
[29] = system: MDA-MB-435
[30] = system: TK-10 renal
[31] = system: COLO 205 colon
[32] = system: HOP-62 NSCLC
[33] = system: UO-31 renal
[34] = system: OVCAR-3 ovarian
[35] = system: HOP-92 NSCLC
[36] = system: HL-60(TB) leukemia
[37] = system: SK-MEL-5 melanoma
[38] = system: BT-549 breast
[39] = system: MDA-N
[40] = system: A549 NSCLC
[41] = system: NCI-H226 lung
[42] = system: SR leukemia
[43] = system: K-562 leukemia
[44] = system: CCRF-CEM leukemia
[45] = system: EKVX NSCLC
[46] = system: SK-MEL-2 melanoma
[47] = system: UACC-62 melanoma
[48] = system: SW-620 colon
[49] = system: OVCAR-5 ovarian
[50] = system: RXF 393 renal
[51] = system: A498 renal
[52] = system: SN12C renal
[53] = system: UACC-257 melanoma
[54] = system: OVCAR-8 ovarian
[55] = system: SF-539 CNS
[56] = system: CAKI-1 renal
[57] = system: MCF7 breast
[58] = system: HS 578T breast

Cc1ccc2c(c1C)-c1c(ccc(C)c1C)C(=O)C2=O
TGI [1]: 3.76 µM
TGI [2]: 2.21 µM
TGI [3]: 2.81 µM
TGI [4]: 2.12 µM
TGI [5]: 13.3 µM
TGI [6]: 3.4 µM
TGI [7]: 0.384 µM
TGI [8]: 8.57 µM
TGI [9]: 3.41 µM
TGI [10]: 8.41 µM
TGI [11]: 18 µM
TGI [12]: 0.686 µM
TGI [13]: 2.95 µM
TGI [14]: 5.38 µM
TGI [15]: 7.3 µM
TGI [16]: 0.403 µM
TGI [17]: 1.8 µM
TGI [18]: 23.8 µM
TGI [19]: 0.559 µM
TGI [20]: 12.8 µM
TGI [21]: 11 µM
TGI [22]: 0.554 µM
TGI [23]: 2.83 µM
TGI [24]: 1.83 µM
TGI [25]: 44.3 µM
TGI [26]: 4.75 µM
TGI [27]: 3.91 µM
TGI [28]: 7.43 µM
TGI [29]: 0.619 µM
TGI [30]: 9.11 µM
TGI [31]: 4.62 µM
TGI [32]: 9.32 µM
TGI [33]: 4.36 µM
TGI [34]: 1.1 µM
TGI [35]: 5.02 µM
TGI [36]: 0.702 µM
TGI [37]: 1.29 µM
TGI [38]: 1.06 µM
TGI [39]: 0.348 µM
TGI [40]: 10.3 µM
TGI [41]: 5.91 µM
TGI [42]: 0.56 µM
TGI [43]: 1.1 µM
TGI [44]: 0.991 µM
TGI [45]: 6.54 µM
TGI [46]: 3.1 µM
TGI [47]: 1.68 µM
TGI [48]: 3.23 µM
TGI [49]: 3.42 µM
TGI [50]: 2.57 µM
TGI [51]: 4.35 µM
TGI [52]: 2.73 µM
TGI [53]: 3.48 µM
TGI [54]: 0.905 µM
TGI [55]: 0.42 µM
TGI [56]: 7.84 µM
TGI [57]: 0.809 µM
TGI [58]: 5.76 µM
